This is an account of results in patent publication US5698669A, “Tri-arginine insulins” (Eli Lilly and Company, priority 1995, dated 1997).

In series [1] the test system is New Zealand White rabbits. As to the kind of experiment: Blood glucose in fasted rabbits after subcutaneous injection of 40 U/ml insulin solutions. It is filed as in vivo, rabbit. The following applies: for Percent of Original Blood Glucose: added zinc 0 mg/ml, 0.2 U/kg s.c., rabbits, n = 10; for hypoglycemic activity: statement in words, animal model.
Experimental: Solutions were prepared containing various amounts of zinc (0-2.4 mg/ml) in the form of zinc chloride. Glacial acetic acid was used to solublize each of the solutions at a final pH range of pH 4-6.
New Zealand White rabbits, mostly female, all weighing 2.7-4 kg, 0.5-4 years of age and fasted 16 hours prior to administration of sample were used for testing.
At various times, 100 μl volumes of blood were obtained from the marginal ear veins, mixed with 900 μl volumes of anticoagulant (EDTA-sodium fluoride) and analyzed for glucose content. The glucose values were standardized to reflect percent of original blood glucose measured prior to sample injection.
The target of another series is human proinsulin (human) (UniProt P01308).
The conditions of series [2]: standardized value used for formulating 40 U/ml solutions; cited from earlier work.
Series [3] deals with des(64) human proinsulin (human) (UniProt P01308).

Consider “Des(64) HPI: split(64) proinsulin wherein Lys-64 is removed”, for which the figures for the “Percent of Original Blood Glucose” value in series [1] (4 hours after injection) and in series [1] (6 hours after injection) were 99.6% and 90.0%, respectively. In addition, the hypoglycemic activity result in series [1] is “hypoglycemic activity of its own”.

Turning to “Pseudomonas aeruginosa Endopeptidase-Lys-C (Promega) (enzyme)”, the conversion of human proinsulin to split(64) proinsulin (preparative HPLC, yield of product) with human proinsulin (human) was 237 mg.

In the case of “Split(64) HPI: human proinsulin wherein the peptide bond between Lys-64 and Arg-65 is broken”, in series [1], the hypoglycemic activity result is given as “hypoglycemic activity of its own”.

Regarding “human insulin: natural human insulin, reference for biopotency”, in series [2], the “standardized value (potency per mass)” value is 28.85 U/mg.

Take “pork trypsin (Sigma) (from UniProt P00761) (enzyme)”: the conversion of des(64) human proinsulin to tri-arg insulin (preparative HPLC, yield of product) in series [3] came to 0.94 g.
